Laboratory results taken from ChEMBL document CHEMBL4627344, “Synthesis, biological evaluation and virtual screening of some acridone derivatives as potential anticancer agents” (2020).

Key:
Assay type in all cases: functional
[1] = tested on: MOLT-4; experiment: Antiproliferative activity against human MOLT4 cells assessed as inhibition of cell growth at 10 uM measured after 48 hrs by SRB assay relative to control; details: MOLT-4, 48 h, read-out: GI
[2] = tested on: SR; experiment: Antiproliferative activity against human SR cells assessed as inhibition of cell growth at 10 uM measured after 48 hrs by SRB assay relative to control; details: read-out: GI
[3] = tested on: NCI-H226; experiment: Antiproliferative activity against human NCI-H226 cells assessed as inhibition of cell growth at 10 uM measured after 48 hrs by SRB assay relative to control; details: NCI-H226, 48 h, read-out: GI
[4] = tested on: NCI-H460; experiment: Antiproliferative activity against human NCI-H460 cells assessed as inhibition of cell growth at 10 uM measured after 48 hrs by SRB assay relative to control; details: NCI-H460, 48 h, read-out: GI
[5] = tested on: COLO 205; experiment: Antiproliferative activity against human COLO205 cells assessed as inhibition of cell growth at 10 uM measured after 48 hrs by SRB assay relative to control; details: COLO 205, 48 h, read-out: GI
[6] = tested on: HCC 2998; experiment: Antiproliferative activity against human HCC2998 cells assessed as inhibition of cell growth at 10 uM measured after 48 hrs by SRB assay relative to control; details: HCC 2998, 48 h, read-out: GI
[7] = tested on: KM12; experiment: Antiproliferative activity against human KM12 cells assessed as inhibition of cell growth at 10 uM measured after 48 hrs by SRB assay relative to control; details: KM12, 48 h, read-out: GI
[8] = tested on: SNB-19; experiment: Antiproliferative activity against human SNB19 cells assessed as inhibition of cell growth at 10 uM measured after 48 hrs by SRB assay relative to control; details: SNB-19, 48 h, read-out: GI
[9] = tested on: U-251; experiment: Antiproliferative activity against human U251 cells assessed as inhibition of cell growth at 10 uM measured after 48 hrs by SRB assay relative to control; details: U-251, 48 h, read-out: GI
[10] = tested on: MDA-MB-435; experiment: Antiproliferative activity against human MDA-MB-435 cells assessed as inhibition of cell growth at 10 uM measured after 48 hrs by SRB assay relative to control; details: MDA-MB-435, 48 h, read-out: GI
[11] = tested on: SK-MEL-5; experiment: Antiproliferative activity against human SK-MEL-5 cells assessed as inhibition of cell growth at 10 uM measured after 48 hrs by SRB assay relative to control; details: SK-MEL-5, 48 h, read-out: GI
[12] = tested on: OVCAR-5; experiment: Antiproliferative activity against human OVCAR5 cells assessed as inhibition of cell growth at 10 uM measured after 48 hrs by SRB assay relative to control; details: OVCAR-5, 48 h, read-out: GI
[13] = tested on: RXF 393; experiment: Antiproliferative activity against human RXF393 cells assessed as inhibition of cell growth at 10 uM measured after 48 hrs by SRB assay relative to control; details: RXF 393, 48 h, read-out: GI
[14] = tested on: DU-145; experiment: Antiproliferative activity against human DU145 cells assessed as inhibition of cell growth at 10 uM measured after 48 hrs by SRB assay relative to control; details: DU-145, 48 h, read-out: GI
[15] = tested on: BT-549; experiment: Antiproliferative activity against human BT549 cells assessed as inhibition of cell growth at 10 uM measured after 48 hrs by SRB assay relative to control; details: BT-549, 48 h, read-out: GI
[16] = tested on: MDA-MB-468; experiment: Antiproliferative activity against human MDA-MB-468 cells assessed as inhibition of cell growth at 10 uM measured after 48 hrs by SRB assay relative to control; details: MDA-MB-468, 48 h, read-out: GI
[17] = tested on: NCI-H23; experiment: Antiproliferative activity against human NCI-H23 cells assessed as inhibition of cell growth measured after 48 hrs by SRB assay; details: NCI-H23, 48 h
[18] = tested on: NCI-H522; experiment: Antiproliferative activity against human NCI-H522 cells assessed as inhibition of cell growth measured after 48 hrs by SRB assay; details: NCI-H522, 48 h
[19] = tested on: HCT-15; experiment: Antiproliferative activity against human HCT15 cells assessed as inhibition of cell growth measured after 48 hrs by SRB assay; details: HCT-15, 48 h
[20] = tested on: SF-295; experiment: Antiproliferative activity against human SF295 cells assessed as inhibition of cell growth measured after 48 hrs by SRB assay; details: SF-295, 48 h
[21] = tested on: SNB-19; experiment: Antiproliferative activity against human SNB19 cells assessed as inhibition of cell growth measured after 48 hrs by SRB assay; details: SNB-19, 48 h
[22] = tested on: SK-MEL-2; experiment: Antiproliferative activity against human SK-MEL-2 cells assessed as inhibition of cell growth measured after 48 hrs by SRB assay; details: SK-MEL-2, 48 h
[23] = tested on: SK-MEL-28; experiment: Antiproliferative activity against human SK-MEL-28 cells assessed as inhibition of cell growth measured after 48 hrs by SRB assay; details: SK-MEL-28, 48 h
[24] = tested on: SK-MEL-5; experiment: Antiproliferative activity against human SK-MEL-5 cells assessed as inhibition of cell growth measured after 48 hrs by SRB assay; details: SK-MEL-5, 48 h
[25] = tested on: OVCAR-8; experiment: Antiproliferative activity against human OVCAR8 cells assessed as inhibition of cell growth measured after 48 hrs by SRB assay; details: OVCAR-8, 48 h
[26] = tested on: NCI/ADR-RES; experiment: Antiproliferative activity against human NCI/ADR-RES cells assessed as inhibition of cell growth measured after 48 hrs by SRB assay
[27] = tested on: A498; experiment: Antiproliferative activity against human A498 cells assessed as inhibition of cell growth measured after 48 hrs by SRB assay; details: A498, 48 h
[28] = tested on: RXF 393; experiment: Antiproliferative activity against human RXF393 cells assessed as inhibition of cell growth measured after 48 hrs by SRB assay; details: RXF 393, 48 h
[29] = tested on: SN12C; experiment: Antiproliferative activity against human SN12C cells assessed as inhibition of cell growth measured after 48 hrs by SRB assay
[30] = tested on: UO-31; experiment: Antiproliferative activity against human UO31 cells assessed as inhibition of cell growth measured after 48 hrs by SRB assay; details: UO-31, 48 h
[31] = tested on: DU-145; experiment: Antiproliferative activity against human DU145 cells assessed as inhibition of cell growth measured after 48 hrs by SRB assay; details: DU-145, 48 h
[32] = tested on: MCF7; experiment: Antiproliferative activity against human MCF7 cells assessed as inhibition of cell growth measured after 48 hrs by SRB assay; details: MCF7, 48 h
[33] = tested on: Hs-578T; experiment: Antiproliferative activity against human Hs 578T cells assessed as inhibition of cell growth measured after 48 hrs by SRB assay
[34] = tested on: MDA-MB-468; experiment: Antiproliferative activity against human MDA-MB-468 cells assessed as inhibition of cell growth measured after 48 hrs by SRB assay; details: MDA-MB-468, 48 h
[35] = tested on: T47D; experiment: Antiproliferative activity against human T47D cells assessed as inhibition of cell growth measured after 48 hrs by SRB assay

Compound	inhibition of growth at 10 µM [1] [%]	inhibition of growth at 10 µM [2] [%]	inhibition of growth at 10 µM [3] [%]	inhibition of growth at 10 µM [4] [%]	inhibition of growth at 10 µM [5] [%]	inhibition of growth at 10 µM [6] [%]	inhibition of growth at 10 µM [7] [%]	inhibition of growth at 10 µM [8] [%]	inhibition of growth at 10 µM [9] [%]	inhibition of growth at 10 µM [10] [%]	inhibition of growth at 10 µM [11] [%]	inhibition of growth at 10 µM [12] [%]	inhibition of growth at 10 µM [13] [%]	inhibition of growth at 10 µM [14] [%]	inhibition of growth at 10 µM [15] [%]	inhibition of growth at 10 µM [16] [%]	GI50 [17] [nM]	GI50 [18] [nM]	GI50 [19] [nM]	GI50 [20] [nM]	further results
O=C1CC(c2ccccc2)Cc2nc3ccc(Cl)cc3cc21 (stereo not drawn)	93.2	87	79.2	96.7	132	94.7	98.3	75	81.2	139	114	73.6	78.2	99.8	95.4	89.8	517	314	588	196	GI50 [21]: 425 nM; GI50 [22]: 320 nM; GI50 [23]: 1690 nM; GI50 [24]: 203 nM; GI50 [25]: 534 nM; GI50 [26]: 64.4 nM; GI50 [27]: 87 nM; GI50 [28]: 195 nM; GI50 [29]: 533 nM; GI50 [30]: 489 nM; GI50 [31]: 334 nM; GI50 [32]: 2550 nM; GI50 [33]: 306 nM; GI50 [34]: 2470 nM
COc1ccc2nc3c(cc2c1)C(=O)CC(C(F)(F)F)C3 (stereo not drawn)	84.7	83.6	60.2	89.5	90.9	16	88.4	49.7	15.3	148	68.6	42.3	102	95.7	39.1	64.4	5150	582	1370	853	GI50 [21]: 3610 nM; GI50 [22]: 802 nM; GI50 [24]: 411 nM; GI50 [25]: 2040 nM; GI50 [26]: 336 nM; GI50 [27]: 355 nM; GI50 [28]: 562 nM; GI50 [29]: 823 nM; GI50 [30]: 2000 nM; GI50 [31]: 849 nM; GI50 [32]: 3420 nM; GI50 [33]: 3350 nM; GI50 [35]: 3290 nM; GI50 [34]: 1870 nM
